Assay results published in patent US10183914B2 (BAYER CROPSCIENCE AKTIENGESELLSCHAFT, priority 2014, dated 2019).
Like-named read-outs stand apart in the source and are kept apart here.

Columns and labels:
Amaranthus retroflexus = test: Pre-emergence herbicidal effect; type: in vivo; details: 3 weeks
Method in brief: (§1)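 Visual percent efficacy versus untreated controls after 3 weeks in the greenhouse (100% = plants dead, 0% = like control). Compounds, as WP or EC, were sprayed onto the covering soil over freshly sown seeds at a water rate of 600 to 800 L/ha plus 0.2% wetting agent.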

Ipomoea purpurea = test: Pre-emergence herbicidal effect; type: in vivo; details: 3 weeks
Method in brief: as §1

Lolium multiflorum [1] = test: Pre-emergence herbicidal effect; type: in vivo; details: 3 weeks
Method in brief: as §1

Stellaria media = test: Pre-emergence herbicidal effect; type: in vivo; details: 3 weeks
Method in brief: as §1

Polygonum convolvulus = test: Pre-emergence herbicidal effect; type: in vivo; details: 3 weeks
Method in brief: as §1

Alopecurus myosuroides [2] = test: Pre-emergence herbicidal effect; type: in vivo; details: 3 weeks
Method in brief: as §1

Echinochloa crus-galli [3] = test: Pre-emergence herbicidal effect; type: in vivo; details: 3 weeks
Method in brief: as §1

Veronica persica = test: Pre-emergence herbicidal effect; type: in vivo; details: 3 weeks
Method in brief: as §1

Setaria viridis [4] = test: Pre-emergence herbicidal effect; type: in vivo; details: 3 weeks
Method in brief: as §1

Matricaria inodora = test: Pre-emergence herbicidal effect; type: in vivo; details: 3 weeks
Method in brief: as §1

Viola tricolor = test: Pre-emergence herbicidal effect; type: in vivo; details: 3 weeks
Method in brief: as §1

[5] = logp (HCOOH), physicochemical characterization
[6] = tested on: Triticum aestivum (spring); test: Pre-emergence herbicidal effect and crop plant compatibility; type: in vivo; details: 3 weeks
Method in brief: as §1

Zea mays [7] = test: as above; type: in vivo; details: 3 weeks
Method in brief: as §1

Avena fatua = test: Pre-emergence herbicidal effect; type: in vivo; details: 3 weeks
Method in brief: as §1

Abutilon theophrasti = test: Pre-emergence herbicidal effect; type: in vivo; details: 3 weeks
Method in brief: as §1

Lolium multiflorum [8] = test: Post-emergence herbicidal effect; type: in vivo; details: visual scoring after about 3 weeks
Method: (§2) Seeds of monocotyledonous and dicotyledonous weed and crop plants are laid out in sandy loam in wood-fiber pots, covered with soil and cultivated in a greenhouse under good growth conditions. 2 to 3 weeks after sowing, the test plants are treated at the one-leaf stage. The compounds of the invention, formulated in the form of wettable powders (WP) or as emulsion concentrates (EC), are then sprayed onto the green parts of the plants as aqueous suspension or emulsion at a water application rate equating to 600 to 800 L/ha with addition of 0.2% wetting agent. After the trial plants have been left to stand in a greenhouse under optimal growth conditions for about 3 weeks, the efficacy of the formulations is scored visually in comparison to untreated controls (herbicidal action in percent (%): 100% efficacy=the plants have died, 0% efficacy=like control plants).

Echinochloa crus-galli [9] = test: Post-emergence herbicidal effect; type: in vivo; details: visual scoring after about 3 weeks
Method: as §2

Setaria viridis [10] = test: Post-emergence herbicidal effect; type: in vivo; details: scoring after about 3 weeks
Method: as §2

Oryza sativa [11] = test: Post-emergence herbicidal effect and crop plant compatibility; type: in vivo; details: visual scoring after about 3 weeks
Method: as §2

Oryza sativa [12] = test: Pre-emergence herbicidal effect and crop plant compatibility; type: in vivo; details: 3 weeks
Method in brief: as §1

Cyperus esculentus = test: Pre-emergence herbicidal effect; type: in vivo; details: 3 weeks
Method in brief: as §1

[13] = tested on: Triticum aestivum (spring); test: Post-emergence herbicidal effect and crop plant compatibility; type: in vivo; details: visual scoring after about 3 weeks
Method: as §2

Zea mays [14] = test: as above; type: in vivo; details: visual scoring after about 3 weeks
Method: as §2

Alopecurus myosuroides [15] = test: Post-emergence herbicidal effect; type: in vivo; details: 320 g/ha, visual scoring after about 3 weeks
Method: as §2

[16] = 320 g/ha (dose by row order of upper half)

Row | Compound | AMARE herbicidal activity in percent (Amaranthus retroflexus; 320 g/ha) | PHBPU herbicidal activity in percent (Ipomoea purpurea; 320 g/ha) | LOLMU herbicidal activity in percent (Lolium multiflorum [1]; 320 g/ha) | STEME herbicidal activity in percent (Stellaria media; 80 g/ha) | STEME herbicidal activity in percent (Stellaria media; 320 g/ha) | POLCO herbicidal activity in percent (Polygonum convolvulus; 320 g/ha) | ALOMY herbicidal activity in percent (Alopecurus myosuroides [2]; 80 g/ha) | ALOMY herbicidal activity in percent (Alopecurus myosuroides [2]; 320 g/ha) | ECHCG herbicidal activity in percent (Echinochloa crus-galli [3]; 320 g/ha) | VERPE herbicidal activity in percent (Veronica persica; 80 g/ha) | VERPE herbicidal activity in percent (Veronica persica; 320 g/ha) | SETVI herbicidal activity in percent (Setaria viridis [4]; 320 g/ha) | MATIN herbicidal activity in percent (Matricaria inodora; 80 g/ha) | MATIN herbicidal activity in percent (Matricaria inodora; 320 g/ha) | VIOTR herbicidal activity in percent (Viola tricolor; 320 g/ha) | TRZAS herbicidal activity in percent ([6]; 80 g/ha) | TRZAS herbicidal activity in percent ([6]; 320 g/ha) | ZEAMX herbicidal activity in percent (Zea mays [7]; 80 g/ha) | ZEAMX herbicidal activity in percent (Zea mays [7]; 320 g/ha) | logp (HCOOH) [5] | further results
1 | CC(=O)c1cnc(NC2CCOc3c(C)cccc32)nc1 (racemic) [1.7] | 100% | 100% | 100% | 80% | 100% | 90% | 80% | 100% | 90% | 100% | 100% | 90% | 90% | 100% | 100% | 0% | 0% | 0% | 20% | – | logp (HCOOH) ([5]; HCOOH): solid; m.p.: 167-168° C.; logp (HCOOH): 2.54; 1H-NMR (CDCl3, 400 MHZ, δ in
2 | O=C1CCCc2nc(NC3CCc4ccccc43)ncc21 (racemic) [2.91] | 100% | 100% | 100% | – | 100% | 80% | – | 90% | 100% | – | 100% | 100% | – | 100% | 100% | – | – | – | 20% | oily; logp (HCOOH): 2.62; 1H-NMR (CDCl3, 400 MHZ, δ in ppm): 1.25 (m, 1H, 1H | AVEFA herbicidal activity in percent (Avena fatua; 320 g/ha): 80%; ABUTH herbicidal activity in percent (Abutilon theophrasti; 320 g/ha): 100%; post-emergence efficacy LOLMU (Lolium multiflorum [8]; 320 g/ha): 100%; post-emergence efficacy ECHCG (Echinochloa crus-galli [9]; 320 g/ha): 100%; post-emergence efficacy SETVI (Setaria viridis [10]; [16]): 90%; post-emergence efficacy ORYSA (Oryza sativa [11]; 320 g/ha): 0%; ORYSA herbicidal activity in percent (Oryza sativa [12]; 320 g/ha): 20%
3 | CC(=O)c1cnc(N[C@@H]2CCOc3ccccc32)nc1 [1.4] | 100% | 100% | – | 90% | 100% | 100% | 100% | 100% | 90% | 100% | 100% | 90% | 100% | 100% | 100% | – | – | – | – | oily; logp (HCOOH): 2.03; 1H-NMR (CDCL3, 400 MHZ, δ in ppm): 2.15 (m, 1H, 1H | AVEFA herbicidal activity in percent (Avena fatua; 80 g/ha): 100%; AVEFA herbicidal activity in percent (Avena fatua; 320 g/ha): 100%; AMARE herbicidal activity in percent (Amaranthus retroflexus; 80 g/ha): 100%; CYPES herbicidal activity in percent (Cyperus esculentus; 80 g/ha): 80%; CYPES herbicidal activity in percent (Cyperus esculentus; 320 g/ha): 100%; POLCO herbicidal activity in percent (Polygonum convolvulus; 80 g/ha): 100%; VIOTR herbicidal activity in percent (Viola tricolor; 80 g/ha): 100%
4 | CC(=O)c1cnc(NC2CCOc3ccccc32)nc1C (stereo not shown) [1.83, 1-[2-(3,4-Dihydro-2H-chromen-4-ylamino)-4-methylpyrimidin-5-yl]ethanone] | – | – | – | – | – | – | – | – | – | – | – | – | – | – | – | – | – | – | – | – | AVEFA herbicidal activity in percent (Avena fatua; 1280 g/ha): 90%; AMARE herbicidal activity in percent (Amaranthus retroflexus; 1280 g/ha): 100%; PHBPU herbicidal activity in percent (Ipomoea purpurea; 1280 g/ha): 100%; LOLMU herbicidal activity in percent (Lolium multiflorum [1]; 1280 g/ha): 100%; STEME herbicidal activity in percent (Stellaria media; 1280 g/ha): 100%; ABUTH herbicidal activity in percent (Abutilon theophrasti; 1280 g/ha): 100%; POLCO herbicidal activity in percent (Polygonum convolvulus; 1280 g/ha): 100%; ALOMY herbicidal activity in percent (Alopecurus myosuroides [2]; 1280 g/ha): 100%; ECHCG herbicidal activity in percent (Echinochloa crus-galli [3]; 1280 g/ha): 100%; VERPE herbicidal activity in percent (Veronica persica; 1280 g/ha): 100%; SETVI herbicidal activity in percent (Setaria viridis [4]; 1280 g/ha): 100%; MATIN herbicidal activity in percent (Matricaria inodora; 1280 g/ha): 100%; VIOTR herbicidal activity in percent (Viola tricolor; 1280 g/ha): 100%; chromatographic logP ([5]; HCOOH (formic acid)): 2.44
5 | Cc1cccc2c1OCC[C@H]2Nc1ncc2c(n1)CCCC2=O [2.100] | 100% | – | 100% | 100% | 100% | 90% | – | 80% | 100% | 100% | 100% | 100% | 100% | 100% | 100% | 0% | 10% | 0% | 10% | – | AMARE herbicidal activity in percent (Amaranthus retroflexus; 80 g/ha): 100%; ABUTH herbicidal activity in percent (Abutilon theophrasti; 320 g/ha): 90%; POLCO herbicidal activity in percent (Polygonum convolvulus; 80 g/ha): 90%; ECHCG herbicidal activity in percent (Echinochloa crus-galli [3]; 80 g/ha): 100%; SETVI herbicidal activity in percent (Setaria viridis [4]; 80 g/ha): 100%; VIOTR herbicidal activity in percent (Viola tricolor; 80 g/ha): 100%; post-emergence efficacy LOLMU (Lolium multiflorum [8]; 320 g/ha): 100%; post-emergence efficacy ECHCG (Echinochloa crus-galli [9]; 80 g/ha): 100%; post-emergence efficacy ECHCG (Echinochloa crus-galli [9]; 320 g/ha): 100%; post-emergence efficacy SETVI (Setaria viridis [10]; 80 g/ha (dose by row order of upper half)): 90%; post-emergence efficacy SETVI (Setaria viridis [10]; [16]): 90%; post-emergence efficacy TRZAS ([13]; 80 g/ha): 10%; post-emergence efficacy TRZAS ([13]; 320 g/ha): 20%; post-emergence efficacy ZEAMX (Zea mays [14]; 80 g/ha): 10%; post-emergence efficacy ZEAMX (Zea mays [14]; 320 g/ha): 10%; post-emergence efficacy ORYSA (Oryza sativa [11]; 80 g/ha): 0%; post-emergence efficacy ORYSA (Oryza sativa [11]; 320 g/ha): 0%
6 | O=C1CC(c2ccccc2F)Cc2nc(N[C@@H]3CCCc4ccccc43)ncc21 (stereo partly shown) [2.93] | – | – | – | – | – | – | – | – | – | – | – | – | – | – | – | – | – | – | – | oily; logp (HCOOH): 4.38; 1H-NMR (CDCl3, 400 MHZ, δ in ppm): 1.95 (m, 3H, 2H | AMARE herbicidal activity in percent (Amaranthus retroflexus; 1280 g/ha): 80%; CYPES herbicidal activity in percent (Cyperus esculentus; 1280 g/ha): 100%; PHBPU herbicidal activity in percent (Ipomoea purpurea; 1280 g/ha): 90%; STEME herbicidal activity in percent (Stellaria media; 1280 g/ha): 100%; VERPE herbicidal activity in percent (Veronica persica; 1280 g/ha): 100%; VIOTR herbicidal activity in percent (Viola tricolor; 1280 g/ha): 80%; TRZAS herbicidal activity in percent ([6]; 1280 g/ha): 0%; ZEAMX herbicidal activity in percent (Zea mays [7]; 1280 g/ha): 0%; ORYSA herbicidal activity in percent (Oryza sativa [12]; 1280 g/ha): 20%
7 | Cc1ccc2c(c1)[C@H](Nc1ncc3c(n1)CC(C(F)(F)F)CC3=O)[C@@H](C)C2 (stereo partly shown) [2.46] | 100% | – | 100% | 100% | 100% | 100% | 90% | 90% | 100% | 100% | 100% | 90% | 90% | 100% | 100% | 0% | 0% | 0% | 0% | oily; logp (HCOOH): 3.24; 1H-NMR (CDCl3, 400 MHZ, δ in ppm): 1.25 (t, 3H, CH3); | AMARE herbicidal activity in percent (Amaranthus retroflexus; 80 g/ha): 90%; LOLMU herbicidal activity in percent (Lolium multiflorum [1]; 80 g/ha): 100%; ABUTH herbicidal activity in percent (Abutilon theophrasti; 320 g/ha): 80%; ECHCG herbicidal activity in percent (Echinochloa crus-galli [3]; 80 g/ha): 90%; SETVI herbicidal activity in percent (Setaria viridis [4]; 80 g/ha): 90%; VIOTR herbicidal activity in percent (Viola tricolor; 80 g/ha): 100%; post-emergence efficacy LOLMU (Lolium multiflorum [8]; 80 g/ha): 80%; post-emergence efficacy LOLMU (Lolium multiflorum [8]; 320 g/ha): 100%; post-emergence efficacy ALOMY (Alopecurus myosuroides [15]): 100%; post-emergence efficacy TRZAS ([13]; 80 g/ha): 10%; post-emergence efficacy TRZAS ([13]; 320 g/ha): 10%; post-emergence efficacy ZEAMX (Zea mays [14]; 80 g/ha): 0%; post-emergence efficacy ZEAMX (Zea mays [14]; 320 g/ha): 0%; post-emergence efficacy ORYSA (Oryza sativa [11]; 80 g/ha): 10%; post-emergence efficacy ORYSA (Oryza sativa [11]; 320 g/ha): 20%
